Reference: patent publication US10179791B2, “Spiro-cyclic amine derivatives as S1P modulators” (AbbVie B.V., priority 2010, dated 2019)
pEC50: −log10 of the molar value. Structures can show the parent of a compound that is named as a salt. Where two headings read alike, the source gives them in different places.

How the values were obtained:
Assay type in all cases: cell-based
human S1P5 receptor = human S1P5 receptor (Homo sapiens (Human), UniProt Q9H228); experiment: In vitro functional activity (agonism) on human S1P5 receptors, CHO-human-S1P5-Aequorin assay; details: aequorin luminescence, CHO cells, 3 independent experiments
Chain of human S1P5 receptor (Q9H228 whole entry): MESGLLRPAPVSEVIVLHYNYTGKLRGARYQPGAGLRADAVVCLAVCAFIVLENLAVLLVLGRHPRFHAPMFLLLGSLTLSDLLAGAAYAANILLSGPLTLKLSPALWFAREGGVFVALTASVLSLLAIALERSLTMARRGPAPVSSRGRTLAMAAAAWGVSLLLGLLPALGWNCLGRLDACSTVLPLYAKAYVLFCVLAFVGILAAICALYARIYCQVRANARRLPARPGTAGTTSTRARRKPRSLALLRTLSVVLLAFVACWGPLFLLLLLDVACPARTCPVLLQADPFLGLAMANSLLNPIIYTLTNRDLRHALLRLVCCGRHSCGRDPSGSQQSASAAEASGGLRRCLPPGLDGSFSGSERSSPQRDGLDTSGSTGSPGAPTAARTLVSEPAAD
Text: In Vitro Functional Activity (Agonism) on Human S1P5 Receptors
(§1) The CHO-human-S1P5-Aeqorin assay was bought from Euroscreen, Brussels (Euroscreen, Technical dossier, Human Lysophospholid S1P5 (Edg8) receptor, DNA clone and CHO AequoScreen™ recombinant cell-line, catalog no: ES-593-A, September 2006). Human-S1P5-Aequorin cells express mitochondrial targeted apo-Aequorin. Cells have to be loaded with coelanterazine, in order to reconstitute active Aequorin. After binding of agonists to the human S1P5 receptor the intracellular calcium concentration increases and binding of calcium to the apo-Aequorin/coelenterazine complex leads to an oxidation reaction of coelenterazine, which results in the production of apo-Aequorin, coelenteramide, CO2 and light ([…]max 469 nm). This luminescent response is dependent on the agonist concentration. Luminescence is measured using the MicroBeta Jet (Perkin Elmer). Agonistic effects of compounds are expressed as pEC50. Compounds were tested at a 10 points half log concentration range, and 3 independent experiments were performed in single point's measurements.

human S1P3 receptor = human S1P3 receptor (Homo sapiens (Human), UniProt Q99500); experiment: In vitro functional activity (agonism) on human S1P3 receptors, CHO-human-S1P3-Aequorin assay; details: aequorin luminescence, CHO K1 cells, 3 independent experiments, read-out: S1P3 pEC50 (converted)
Chain of human S1P3 receptor (Q99500 whole entry): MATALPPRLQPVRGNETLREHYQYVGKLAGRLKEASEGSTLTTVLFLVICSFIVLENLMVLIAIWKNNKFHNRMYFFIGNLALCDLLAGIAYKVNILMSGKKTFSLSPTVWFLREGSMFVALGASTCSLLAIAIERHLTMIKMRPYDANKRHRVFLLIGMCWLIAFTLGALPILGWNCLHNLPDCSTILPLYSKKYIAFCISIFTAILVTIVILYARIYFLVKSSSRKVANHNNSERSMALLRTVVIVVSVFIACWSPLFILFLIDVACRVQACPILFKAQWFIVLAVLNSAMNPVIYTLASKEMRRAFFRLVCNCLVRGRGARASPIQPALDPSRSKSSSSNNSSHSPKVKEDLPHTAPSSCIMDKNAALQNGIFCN
Text: In Vitro Functional Activity (Agonism) on Human S1P3 Receptors
The CHO-human-S1P3-Aeqorin assay (CHO/Gα16/AEQ/h-S1P3) was established at Solvay Pharmaceuticals. The plasmid DNA coding for the S1P3 receptor (accession number in GenBank NM_005226 was purchased from UMR cDNA resource Centre (Rolla, Mo.). The pcDNA3.1/hS1P3 construct carrying the mitochondrially targeted apo-Aeqorin and Gal6 protein was transfected in CHO K1 cell-line.
as §1, with “Human-S1P3-Aequorin” for “The CHO-human-S1P5-Aeqorin assay was bought from Euroscreen, Brussels (Euroscreen, Technical dossier, Human Lysophospholid S1P5 (Edg8) receptor, DNA clone and CHO AequoScreen™ recombinant cell-line, catalog no: ES-593-A, September 2006). Human-S1P5-Aequorin”, “S1P3” for “S1P5”

human S1P1 = human S1P1 (Homo sapiens (Human), UniProt P21453); experiment: In vitro functional activity (agonism) on human S1P1 receptors (method A), CHO-K1-human-S1P1-Aequorin assay; details: for EC50: agonism, determined using method A (aequorin luminescence, CHO-K1 cells), 2 independent experiments, read-out: S1P1^A pEC50 (converted)
Chain of human S1P1 (P21453 whole entry): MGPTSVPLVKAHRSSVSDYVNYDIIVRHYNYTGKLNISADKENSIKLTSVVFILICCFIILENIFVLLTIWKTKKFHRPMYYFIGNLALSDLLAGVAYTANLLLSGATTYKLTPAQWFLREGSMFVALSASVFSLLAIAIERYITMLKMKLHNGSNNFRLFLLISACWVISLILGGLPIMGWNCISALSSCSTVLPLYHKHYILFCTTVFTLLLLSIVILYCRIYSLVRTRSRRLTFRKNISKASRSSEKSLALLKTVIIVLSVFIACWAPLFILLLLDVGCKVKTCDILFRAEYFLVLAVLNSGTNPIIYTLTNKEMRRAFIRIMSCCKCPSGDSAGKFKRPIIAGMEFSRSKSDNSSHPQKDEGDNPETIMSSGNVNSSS
Text: In Vitro Functional Activity (Agonism) on Human S1P1 Receptors (Method A)
as §1, with “Human-S1P1-Aequorin” for “The CHO-human-S1P5-Aeqorin assay was bought from Euroscreen, Brussels (Euroscreen, Technical dossier, Human Lysophospholid S1P5 (Edg8) receptor, DNA clone and CHO AequoScreen™ recombinant cell-line, catalog no: ES-593-A, September 2006). Human-S1P5-Aequorin”, “S1P1” for “S1P5”, “2” for “3”

SMILES	S1P5 pEC50 (human S1P5 receptor)	EC50 (human S1P3 receptor)	EC50 (human S1P1)	pEC50 (human S1P1)
O=C(O)CCN1CCC2(CC1)COc1cc(SCc3c(Cl)cccc3C3CC3)ccc12 [Compound 141, 3-(6-{[(2-Chloro-6-cyclopropylphenyl)methyl]sulfanyl}-2H-spiro[1-benzofuran-3,4′-piperidine]-1′-yl}propanoic acid hydrochloride]	8.2	> 10 µM	0.316 µM	–
CCCCCCCCOc1ccc2c(c1F)OCC21CCN(CCC(=O)O)CC1 [Compound 277, 3-[7-fluoro-6-(octyloxy)-2H-spiro[1-benzofuran-3,4′-piperidine]-1′-yl]propanoic acid]	7.8	> 10 µM	0.0794 µM	–
CCc1cccc(Cl)c1CSc1ccc2c(c1)OCC21CCN(CCC(=O)O)CC1 [Compound 140, 3-(6-{[(2-Chloro-6-ethylphenyl)methyl]sulfanyl}-2H-spiro[1-benzofuran-3,4′-piperidine]-1′-yl}propanoic acid hydrochloride]	8.5	> 10 µM	–	6.80
CCc1cccc(CC)c1COc1ccc2c(c1)OCC21CCN(CCC(=O)O)CC1 [Compound 258, 3-{6-[(2,6-diethylphenyl)methoxy]-2H-spiro[1-benzo-furan-3,4′-piperidine]-1′-yl}propanoic acid]	7.8	> 10 µM	–	5.60
O=C(O)CN1CCC2(CC1)COc1cc(C3CC3c3c(Cl)cccc3Cl)ccc12 (centres unmarked) [Compound 176, 2-{6-[2-(2,6-Dichlorophenyl)cyclopropyl]-2H-spiro[1-benzo-furan-3,4′-piperidine]-1′-yl}acetic acid hydrochloride]	7.6	> 10 µM	> 31.6 µM	–
O=C(O)CCN1CCCC2(COc3cc(OCc4c(Cl)cccc4C(F)(F)F)ccc32)C1 (centres unmarked) [Compound 326, 3-(6-{[2-Chloro-6-(trifluoromethyl)phenyl]methoxy}-2H-spiro[1-benzofuran-3,3′-piperidine]-1′-yl)propanoic acid]	–	> 10 µM	> 31.6 µM	–
O=C(O)CCN1CCC2(CC1)COc1cc(OCc3c(Cl)cccc3C3CC3)ccc12 [Compound 75, 3-{6-[(2-Chloro-6-cyclopropyl)phenyl)methoxy]-2H-spiro[1-benzofuran-3,4′-piperidine]-1′-yl}propanoic acid hydrochloride]	7.7	> 10 µM	2.51 µM	–
O=C(O)CCN1CCCC2(COc3cc(OCc4c(Cl)cccc4C4CC4)ccc32)C1 (centres unmarked) [Compound 317, 3-{6-[(2-Chloro-6-cyclopropylphenyl)methoxy]-2H-spiro[1-benzofuran-3,3′-piperidine]-1′-yl}propanoic acid hydrochloride]	7	> 10 µM	> 31.6 µM	–
O=C(O)CCN1CCC2(CC1)COc1cc(C#Cc3ccccc3)ccc12 [Compound 303, 3-[6-(2-Phenylethynyl)-2H-spiro[1-benzofuran-3,4′-piperidine]-1′-yl]propanoic acid hydrochloride]	7.6	> 10 µM	> 31.6 µM	–
O=C(O)CCN1CCC2(CC1)COc1cc(S(=O)(=O)Cc3c(Cl)cccc3Cl)ccc12 [Compound 299, 3-(6-{[(2,6-Dichlorophenyl)methane]sulfonyl}-2H-spiro[1-benzofuran-3,4′-piperidine]-1′-yl}propanoic acid hydrochloride]	6	> 10 µM	> 31.6 µM	–
O=C(O)CN1CCC2(CC1)COc1cc(OCc3c(Cl)cc(Cl)cc3Cl)ccc12 [Compound 110, 2-{6-[(2,4,6-Trichlorophenyl)methoxy]-2H-spiro[1-benzofuran-3,4′-piperidine]-1′-yl}acetic acid hydrochloride]	7.8	2 µM	> 10 µM	–
CCc1cccc(Cl)c1CSc1ccc2c(c1F)OCC21CCN(CCC(=O)O)CC1 [Compound 296, hydrochloride]	8.7	> 10 µM	–	–
CCCCCCCOc1ccc2c(c1F)OCC21CCN(CCC(=O)O)CC1 [Compound 276, 3-[7-fluoro-6-(heptyloxy)-2H-spiro[1-benzofuran-3,4′-piperidine]-1′-yl]propanoic acid]	7.1	> 10 µM	> 31.6 µM	–
O=C(O)CCN1CCC2(CC1)COc1cc(OCc3c(F)cccc3C3CC3)ccc12 [Compound 253, 3-{6-[(2-cyclopropyl-6-fluorophenyl)methoxy]-2H-spiro[1-benzofuran-3,4′-piperidine]-1′-yl}propanoic acid]	7.7	> 10 µM	2.51 µM	–
CCc1cccc(Cl)c1COc1ccc2c(c1)OCC21CCN(CC(=O)O)CC1 [Compound 111, 2-{6-[(2-Chloro-6-ethylphenyl)methoxy]-2H-spiro[1-benzofuran-3,4′-piperidine]-1′-yl}acetic acid hydrochloride]	7.6	2 µM	> 10 µM	–
O=C(O)CCN1CCC2(CC1)COc1cc(OCc3c(Cl)cccc3OC(F)(F)F)ccc12 [Compound 77, 3-(6-{[2-Chloro-6-(trifluoromethoxy)phenyl]methoxy}-2H-spiro[1-benzofuran-3,4′-piperidine]-1′-yl)propanoic acid hydrochloride]	7.6	> 10 µM	6.31 µM	–
O=C(O)CCN1CCC2(CC1)COc1cc(SCc3c(Cl)cc(Cl)cc3Cl)ccc12 [Compound 143, 3-(6-{[(2,4,6-Trichlorophenyl)methyl]sulfanyl}-2H-spiro[1-benzofuran-3,4′-piperidine]-1′-yl}propanoic acid hydrochloride]	7.5	–	> 10 µM	–
CC(CN1CCC2(CC1)COc1cc(OCc3c(Cl)cc(Cl)cc3Cl)ccc12)C(=O)O (centres unmarked) [Compound 102, 2-Methyl-3-{6-[(2,4,6-trichlorophenyl)methoxy]-2H-spiro[1-benzofuran-3,4′-piperidine]-1′-yl}propanoic acid hydrochloride]	7.8	–	0.631 µM	–
O=C(O)CCN1CCC2(CC1)COc1c2ccc(OCc2c(Cl)cc(Cl)cc2Cl)c1F [Compound 132, 3-{7-Fluoro-6-[(2,4,6-trichlorophenyl)methoxy]-2H-spiro[1-benzofuran-3,4′-piperidine]-1′-yl}propanoic acid hydrochloride]	8.3	2 µM	> 31.6 µM	–
O=C(O)CCN1CCC2(CC1)OCc1cc(OCc3c(Cl)cccc3Cl)ccc12 [Compound 203, 3-{5-[(2,6-Dichlorophenyl)methoxy]-3-H-spiro[2-benzofuran-1,4′-piperidine]-1′-yl}propanoic acid hydrochloride]	6.7	> 10 µM	> 10 µM	–
CC(C)c1cccc(F)c1COc1ccc2c(c1)OCC21CCN(CCC(=O)O)CC1 [Compound 252, 3-(6-{[2-fluoro-6-(propan-2-yl)phenyl]methoxy}-2H-spiro[1-benzofuran-3,4′-piperidine]-1′-yl)propanoic acid]	–	5.01 µM	–	–
CC(CN1CCC2(CC1)COc1cc(SCc3c(Cl)cccc3Cl)ccc12)C(=O)O (centres unmarked) [Compound 153, 3-(6-{[(2,6-Dichlorophenyl)methyl]sulfanyl}-2H-spiro[1-benzofuran-3,4′-piperidine]-1′-yl}-2-methylpropanoic acid hydrochloride]	7.9	–	1 µM	–
